{
  "source": "paper PMC7529893",
  "about": "“Structural basis for substrate recognition and chemical inhibition of oncogenic MAGE ubiquitin ligases” (Nature Communications, 2020)",
  "key": {"[1]": {"biological_target": "T1, MAGE-A11:PCF11 interaction (GST-MAGE-A11 MHD and FAM-PCF11_4) (Homo sapiens, UniProt P43364)", "T1 construct": "GST-MAGE-A11 MHD (human MAGE-A11 MHD amino acid 218-429); made in house; host or cells: E. coli BL21(DE3)", "T1 sequence (P43364 218-429)": "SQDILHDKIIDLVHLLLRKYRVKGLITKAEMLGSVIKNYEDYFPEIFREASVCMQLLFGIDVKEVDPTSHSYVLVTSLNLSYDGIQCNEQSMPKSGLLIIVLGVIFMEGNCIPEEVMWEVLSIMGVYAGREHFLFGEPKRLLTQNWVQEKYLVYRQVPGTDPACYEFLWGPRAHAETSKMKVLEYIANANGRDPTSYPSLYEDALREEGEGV", "test": "TR-FRET dose response test of compounds for disruption of MAGE-A11:PCF11 binding", "settings": "Fig. 5c, 5f, Supplementary Fig. 4e legend; read-out: IC50, TR-FRET competition, disruption of MAGE-A11:PCF11 binding", "in_short": "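Competition of compounds against binding of FAM-PCF11_4 peptide to GST-MAGE-A11 MHD, detected with Tb-anti-GST, in 50 mM Tris pH 7.5, 20 mM MgCl2, 0.1 mg/ml BSA, 1 mM DTT. 90 min at ~25 °C; 520/490 nm emission ratio (340 nm excitation) fitted for IC50.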"}, "[2]": {"tested_on": "MAGE-A11-knockout DAOY cells or those reconstituted with MAGE-A11", "test": "Cell viability, alamarBlue, DAOY cells", "format": "cell-based", "experimental": "To assess cell viability after SJ521054 treatment, 1 × 10^4 cells/ml were treated with SJ521054 (0–40 μM) and incubated for 24 h prior to changing the media and adding alamarBlue (Thermo Fisher Scientific) and incubating for 4 h at 37 °C. Plates were read by measuring the fluorescence with excitation wavelength at 540 nm and emission wavelength at 590 nm on an Enspire plate reader."}},
  "note": "pIC50: −log10 of the molar value. Entries after “also recorded” stand apart in the source; their conditions may differ.",
  "data": [
    {"smiles": "FC(F)(F)c1ccc2c(NCCCNCc3ccc4[nH]ccc4c3)ccnc2c1", "note": "[SJ000521054-02]", "values": [
      {"measurement": "pIC50", "setting": "[1]", "value": 6.40},
      {"measurement": "cell viability", "setting": "[2]; DAOY cells with MAGE-A11 against vector control, 0–40 μM, 24 h, listed as SJ521054", "value": "reduces viability of MAGE-A11 expressing DAOY cancer cells; also recorded: decreased the viability of MAGE-A11 expressing DAOY and HEK293FT cells to a much greater extent than vector control MAGE-A11-negative cells"},
      {"measurement": "cytotoxicity independent of MAGE-A11", "setting": "[2]; higher concentrations, both cell lines (DAOY and HEK293)", "value": "shows cytotoxicity to both cell lines"}
    ]},
    {"smiles": "c1ccc2c(NCCCNCc3ccc4[nH]ccc4c3)ccnc2c1", "note": "[SJ001008066-01]", "values": [
      {"measurement": "pIC50", "setting": "[1]", "value": 6.89}
    ]}
  ]
}
